Patent US12637445B2, “KIF18A inhibitors” (AMGEN INC., priority 2019, dated 2026)

Target: T1, Recombinant human KIF18A (1-467 His-tagged) protein (Homo sapiens, UniProt Q8NI77)
T1 construct: Recombinant human KIF18A (1-467 His-tagged) protein; His
Test: KIF18A Enzyme Assay (microtubule-stimulated ATPase activity, ADP-Glo)
Format: biochemical
Conditions: 30 nM KIF18A, 30 μg/mL pig microtubules, 75 μM ATP, ADP-Glo luminescence
Excerpt: KIF18A Enzyme Assay: Microtubule-stimulated ATPase activity assay is used to measure KIF18A enzyme activity after treatment with compound. Compounds were 2-fold serially diluted in DMSO (Sigma Inc) over 22-point concentration range. Recombinant human KIF18A (1-467 His-tagged) protein was expressed using a baculovirus system and purified by affinity chromatography by Amgen Inc. Concentrations of KIF18A protein, microtubules (MT), and ATP in the reaction were optimized for standardized homogenous enzyme assay using ADP-Glo™ Kinase/ATPase Assay Kit (Promega Inc). The assay measures ADP formed from the ATPase reaction. Prepare reaction buffer [(15 mM Tris, pH 7.5 (Teknova Inc), 10 mM MgCl2 (IT Baker Inc), 0.01% Pluronic F-68 (Life Technologies Inc), 1 μM Taxol (Cytoskeleton Inc), and 30 μg/mL pig microtubules (Cytoskeleton Inc)]. Add compound and KIF18A protein (30 nM) to prepared reaction buffer and incubated for 15 minutes at room temperature, next add ATP (at Kin, 75 μM) to the reaction mixture and incubated for an additional 15 minutes at room temperature. Mix 5 μl of ADP-Glor™ Reagent and 2.5 μl of the reaction mixture and incubate for 40 minutes at room temperature. Add 10 μl ADP-Glorh Detection Reagent and incubate for 40 minutes at room temperature. Read luminescence using EnVision microplate reader with ultra-luminescence module (Perkin Elmer Inc). Concentration-response curve-fitting and IC50 determination was performed using Genedata Screener Software (Standard 15.0.1, Genedata Inc) with a four-parameter logistic regression fit model.

T1 sequence (Q8NI77 1-467): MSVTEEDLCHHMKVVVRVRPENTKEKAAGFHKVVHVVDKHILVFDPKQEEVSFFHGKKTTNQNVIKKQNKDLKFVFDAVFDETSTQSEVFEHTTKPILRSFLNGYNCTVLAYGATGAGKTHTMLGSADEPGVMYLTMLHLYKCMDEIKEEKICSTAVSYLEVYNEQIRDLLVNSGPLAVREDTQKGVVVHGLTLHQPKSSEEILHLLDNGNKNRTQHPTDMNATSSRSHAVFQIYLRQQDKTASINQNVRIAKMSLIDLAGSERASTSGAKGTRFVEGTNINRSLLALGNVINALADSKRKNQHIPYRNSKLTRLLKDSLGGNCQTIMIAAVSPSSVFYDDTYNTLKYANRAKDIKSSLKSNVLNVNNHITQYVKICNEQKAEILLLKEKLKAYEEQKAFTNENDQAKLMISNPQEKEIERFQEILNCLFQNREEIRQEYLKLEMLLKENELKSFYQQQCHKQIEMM
T1 sequence (P02550 whole entry partner): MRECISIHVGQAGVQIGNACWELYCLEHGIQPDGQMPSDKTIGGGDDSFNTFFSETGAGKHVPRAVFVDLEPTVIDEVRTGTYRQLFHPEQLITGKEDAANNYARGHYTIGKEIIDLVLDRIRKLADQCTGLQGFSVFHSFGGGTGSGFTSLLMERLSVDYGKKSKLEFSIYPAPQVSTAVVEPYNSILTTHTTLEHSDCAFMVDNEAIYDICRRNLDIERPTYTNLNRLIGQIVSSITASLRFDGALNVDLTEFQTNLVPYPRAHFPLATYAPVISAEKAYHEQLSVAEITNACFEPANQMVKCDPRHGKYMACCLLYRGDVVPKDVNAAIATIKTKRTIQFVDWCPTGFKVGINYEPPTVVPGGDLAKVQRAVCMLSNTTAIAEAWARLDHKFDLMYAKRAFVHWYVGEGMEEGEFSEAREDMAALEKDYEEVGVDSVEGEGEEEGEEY
T1 sequence (P02554 whole entry partner): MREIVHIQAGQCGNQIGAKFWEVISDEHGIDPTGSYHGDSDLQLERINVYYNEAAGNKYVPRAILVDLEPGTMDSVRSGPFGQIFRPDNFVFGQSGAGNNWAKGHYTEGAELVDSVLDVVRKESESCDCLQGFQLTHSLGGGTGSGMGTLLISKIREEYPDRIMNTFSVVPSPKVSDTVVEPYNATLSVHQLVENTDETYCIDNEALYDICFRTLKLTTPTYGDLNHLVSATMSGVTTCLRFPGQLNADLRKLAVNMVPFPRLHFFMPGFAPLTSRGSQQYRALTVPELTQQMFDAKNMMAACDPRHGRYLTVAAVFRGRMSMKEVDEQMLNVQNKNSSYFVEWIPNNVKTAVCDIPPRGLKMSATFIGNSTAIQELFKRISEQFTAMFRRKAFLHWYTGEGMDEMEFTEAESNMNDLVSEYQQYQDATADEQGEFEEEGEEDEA

Row | IC50 | SMILES
1 | 73 nM | Cc1cc(Nc2ncnc3cc([S@](=N)(=O)C4CC4)cc(N4CCC5(CC4)CC5)c23)cc(N2CCC(F)(F)CC2)c1 (single isomer, unassigned) [Example 102-1]
2 | 262 nM | Cc1cc(Nc2ncnc3cc([S@@](=N)(=O)C4CC4)cc(N4CCC5(CC4)CC5)c23)cc(N2CCC(F)(F)CC2)c1 (single isomer, unassigned) [Example 102-2]
3 | 955 nM | Cc1cc(Nc2nc(C)nc3cc(NS(=O)(=O)CCO)cc(N4CCC5(CC4)CC5)c23)cc(N2CCC(F)(F)CC2)c1 [Example 100-1, N-(4-((3-(4,4-Difluoropiperidin-1-yl)-5-methylphenyl)amino)-2-methyl-5-(6-azaspiro[2.5]octan-6-yl)quinazolin-7-yl)-2-hydroxyethane-1-sulfonamide]
4 | 3340 nM | Cc1cc(Nc2ncnc3cccc(N4CCC5(CC4)CC5)c23)cc(N2CCC(F)(F)CC2)c1 [Example 101-1, N-(3-(4,4-Difluoropiperidin-1-yl)-5-methylphenyl)-5-(6-azaspiro[2.5]octan-6-yl)quinazolin-4-amine]
5 | 403 nM | Cc1cc(C)cc(Nc2ncnc3cc(NS(=O)(=O)CCO)cc(N4CCC5(CC4)CC5)c23)c1 [Example 103-1, N-(4-((3,5-Dimethylphenyl)amino)-5-(6-azaspiro[2.5]octan-6-yl)quinazolin-7-yl)-2-hydroxyethane-1-sulfonamide]
6 | 61 nM | O=S(=O)(CCO)Nc1cc(N2CCC3(CC2)CC3)c2c(Nc3cccc(OCCC(F)(F)F)c3)ncnc2c1 [Example 103-2, N-(5-(6-Azaspiro[2.5]octan-6-yl)-4-((3-(3,3,3-trifluoropropoxy)phenyl)amino)quinazolin-7-yl)-2-hydroxyethane-1-sulfonamide]
7 | 78 nM | Cc1cc(Nc2ncnc3cc(NS(=O)(=O)CCO)cc(N4CCC5(CC4)CC5)c23)nc(N2CCC(F)(F)CC2)c1 [Example 105-1, N-(4-((6-(4,4-Difluoropiperidin-1-yl)-4-methylpyridin-2-yl)amino)-5-(6-azaspiro[2.5]octan-6-yl)quinazolin-7-yl)-2-hydroxyethane-1-sulfonamide]
8 | 2840 nM | Cc1cc(Oc2ncnc3cc(NS(=O)(=O)CCO)cc(N4CCC5(CC4)CC5)c23)cc(N2CCC(F)(F)CC2)c1 [Example 105-2, N-(4-(3-(4,4-Difluoropiperidin-1-yl)-5-methylphenoxy)-5-(6-azaspiro[2.5]octan-6-yl)quinazolin-7-yl)-2-hydroxyethane-1-sulfonamide]

More lines, now with the values behind:

Row | SMILES | IC50
9 | Cc1cc(Nc2ncnc3cc(NS(=O)(=O)CCO)cc(N4CCC5(CC4)CC5)c23)cc(N2CCC(F)(F)CC2)c1 [Example 100, N-(4-((3-(4,4-Difluoropiperidin-1-yl)-5-methylphenyl)amino)-5-(6-azaspiro[2.5]octan-6-yl)quinazolin-7-yl)-2-hydroxyethane-1-sulfonamide] | 49 nM
10 | Cc1cc(Nc2ncnc3cc(S(C)(=O)=O)cc(N4CCC5(CC4)CC5)c23)cc(N2CCC(F)(F)CC2)c1 [Example 101, N-(3-(4,4-Difluoropiperidin-1-yl)-5-methylphenyl)-7-(methylsulfonyl)-5-(6-azaspiro[2.5]octan-6-yl)quinazolin-4-amine] | 940 nM
11 | Cc1cc(Nc2ncnc3cc(NS(=O)(=O)CCO)cc(N4CCC5(CC4)CC5)c23)cc(OCCC(F)(F)F)c1 [Example 103, 2-Hydroxy-N-(4-((3-methyl-5-(3,3,3-trifluoropropoxy)phenyl)amino)-5-(6-azaspiro[2.5]octan-6-yl)quinazolin-7-yl)ethane-1-sulfonamide] | 175 nM
12 | Cc1cc(Nc2ncnc3cc(NS(=O)(=O)CCO)cc(N4CCC5(CC4)CC5)c23)nc(N2CCC(F)(F)CC2)n1 [Example 104, N-(4-((2-(4,4-Difluoropiperidin-1-yl)-6-methylpyrimidin-4-yl)amino)-5-(6-azaspiro[2.5]octan-6-yl)quinazolin-7-yl)-2-hydroxyethane-1-sulfonamide] | 129 nM
13 | Cc1cc(Nc2ncnc3cc(NS(=O)(=O)CCO)cc(N4CCC5(CC4)CC5)c23)cc(N2CCC(F)(F)CC2)n1 [Example 105, N-(4-((2-(4,4-Difluoropiperidin-1-yl)-6-methylpyridin-4-yl)amino)-5-(6-azaspiro[2.5]octan-6-yl)quinazolin-7-yl)-2-hydroxyethane-1-sulfonamide] | 82 nM
14 | Cc1cc(Nc2nncc3cc(NS(=O)(=O)CCO)cc(N4CCC5(CC4)CC5)c23)cc(N2CCC(F)(F)CC2)c1 [Example 106, N-(1-((3-(4,4-Difluoropiperidin-1-yl)-5-methylphenyl)amino)-8-(6-azaspiro[2.5]octan-6-yl)phthalazin-6-yl)-2-hydroxyethane-1-sulfonamide] | 25 nM
